Measurements published in paper PMC8169650, “Identification of Small Molecule Inhibitors of a Mir155 Transcriptional Reporter in Th17 Cells” (Scientific Reports, 2021).
Like-named read-outs stand apart in the source and are kept apart here.

Legend:
[1] = LC-MS analysis of compound stability
Method: We analyzed by liquid chromatography mass spectrometry (LC–MS) the 10 mM compound stock solutions in DMSO, stored at − 20 °C, that were used in the screening (older batch) versus the “fresh” solutions. […] Sample 2 is another sample that had been kept outside at room temperature for 30 days before evaluation.

Mir155 reporter = Mir155 reporter Beta-Glo HTS assay (β-gal activity); type: cell-based, mouse; conditions: Mus musculus, 48 h, read-out: EC50, inhibition of Mir155 reporter expression
Method: To develop an assay for the HTS screen, CD4^+ T cells were purified from spleen and lymph nodes of the Mir155 reporter mice. The purified CD4^+ T cells were cultured under Th17 cell-polarizing conditions in twelve well plates following which differentiated Th17 cells were transferred and expanded in six well plates followed by a resting period of 2 days in T cell media (schema depicted in Fig. 1a). We first optimized the cell number to maximize the assay window. To this end, differentiated Th17 cells were plated at different cell densities in the wells of polystyrene 1536-well plates under Th17 polarizing conditions. T cell activation was accomplished using two protocols. In the first protocol, magnetic beads coupled to anti-CD3 and anti-CD28 antibodies (CD3/CD28 microbeads) were added to mediate T cell activation as induction of MiR155 expression requires engagement of the TCR CD3 complex (signal 1) plus the co-stimulatory molecule CD28 (signal 2). The cells along with the beads were incubated at 37 °C, 5% CO2 for 48 h and, subsequently, high-throughput quantitation of β-gal activity was performed after 30 min of incubation using the Beta-Glo Assay system (Fig. 1b).
The NPC collection was screened at seven concentrations (top concentration 46 µM; 1:5 dilution thereafter) and drug response curves for the compounds were generated using our qHTS curve class classification algorithm as described above.
CD4^+ cells were purified from spleens and lymph nodes of Mir155 reporter mice as described above. Briefly, single cell suspensions were prepared by mechanical disruption followed by lysis of red blood cells with 0.83% ammonium chloride. CD4^+ T cells were either isolated by FACS sorting (BD FACS Aria) or were positively selected using magnetic CD4 microbeads (Miltenyi Biotec)[43]. 1 million CD4^+ cells/well were cultured in anti-CD3/CD28 (1 µg/ml each) coated 12 well plates under Th17 polarization conditions following which differentiated Th17 cells were transferred and expanded in six well plates followed by a resting period of 2 days in T cell media. A cocktail containing 10 ng/ml each of IL-6, IL-1 β, IL-21 and TGF-β (0.5 ng/ml) and IFNγ, IL-4, IL-12 neutralizing antibodies (10 μg/ml) was used for the Th17 polarizing conditions. For the HTS assay, 2000 differentiated Th17 cells/well in Th17 polarizing media were added to Greiner-one high base solid bottom white tissue culture treated 1536 well plates (catalog # 789173-F) using a small cassette and a Multidrop Combi dispenser (Thermo Fisher Scientific Inc.,Waltham, MA). Compounds were added using a Kalypsys pintool (Columns 5–48) and magnetic beads coupled to anti-CD3 and anti-CD28 (CD3/CD28 microbeads) were added to mediate T cell activation. CD3/CD28 microbeads were not added to first 2 columns and those wells served as basal control. DMSO was added to columns 3 and 4 and served as 100% signal. The plates were incubated for 48 h at 37 °C, 5% CO2, 95% humidity covered with low evaporation stainless steel lids from Kalypsys. After 48 h of incubation, 5 µl of Beta-Glo reagent (Beta Glo Assay System, Promega) was added using a Bioraptor Flying Reagent Dispenser (Aurora Discovery-BD) and the plates were incubated at room temperature for 30 min. Luminescence signal was captured using a 10 s exposure with a ViewLux (Perkin Elmer) containing a luminescent filter. Beta Glo reagent consists of Beta Glo substrate and buffer that are combined to form the Beta Glo reagent (Beta Glo Assay System, Promega).

[2] = test system: Th17 cells from Mir155 reporter mice; assay: HTS viability assay (CellTiter-Glo); type: cell-based, mouse; conditions: primary Th17 cells
Method: Next, the HTS assay was further validated for robustness by screening LOPAC1280, a collection of 1280 pharmacologically active compounds. The LOPAC collection contains biologically annotated compounds with diverse mechanism(s) including but not limited to pharma-developed tools, receptor ligands and approved drugs. Seven concentrations of each compound were assayed, ranging from 3 nM to 46 µM as five-fold dilutions. One assay plate was treated with DMSO to determine the assay robustness in the absence of compounds (Fig. 1d). A total of eight assay plates including DMSO plate were tested in the LOPAC pilot screen and the median assay parameter per plate was 21-fold signal-to-background (S/B) ratio and the median Z’-factor was 0.72 (Fig. 1e), thus further validating the robustness of this assay in a 1536-well format. Data was analyzed using a curve class classification algorithm which classifies dose responses in four categories (Class 1, 2, 3 and 4) based on the quality of curve fit to the data (r^2), the magnitude of the response (efficacy), and the number of asymptotes to the calculated curve. Compounds with a curve class of either − 1.1, − 1.2, − 2.1, − 2.2 in the primary assay were classified as pharmacologically active compounds. […] The LOPAC collection was additionally tested for toxic effects using the CellTiter-Glo Luminescent Cell Viability Assay (Promega) which measures ATP levels as a proxy for number of live cells to exclude toxic compounds. […] An ideal compound should antagonize Mir155 reporter with minimal effect on cell viability.
For the HTS viability assay, the T cells were purified, polarized, plated and treated with compounds as described above for HTS β-gal assay except Columns 1 and 2 had no cells and served as basal control. After 48 h of incubation, 3 μL of CellTiter-Glo reagent (Promega) was added using a Bioraptor Flying Reagent Dispenser (Aurora Discovery-BD)[50]. The plates were incubated for 15 min at room temperature and the luminescence signal was captured using a ViewLux (Perkin Elmer) containing a luminescent filter. […]

[3] = test system: IL-17 production in Th17 cells; assay: Intracellular IL-17 flow cytometric cytokine assay under Th17 polarization; type: cell-based, mouse; conditions: for IL-17+ cells, gated on live CD4+CD44high cells: DMSO 32% (panel b), 36.8% (panel c); for inhibition at 20 µM: Mus musculus, 96 h, read-out: down-regulation (inhibition) of IL-17 production compared to control
Method: (§1) It has been previously shown that IL-17 production is defective in miR-155 deficient cells. […] To test the hit compounds for IL-17 downregulation, we purified naive CD4^+ T cells from C57BL/6 mice and cultured them under Th17 polarization condition. Small molecules at multiple concentrations (20 µM, 10 µM and 5 µM) were added 18 h post-plating of CD4^+ T cells on anti-CD3/CD28 coated plates and again on day 2 of culture (schema depicted in Fig. 3a).
(§2) Spleens and lymph nodes were harvested from mice and single cell suspensions were prepared by mechanical disruption followed by lysis of red blood cells with 0.83% ammonium chloride. CD4^+ T cells were either isolated by FACS sorting (BD FACS Aria) or were positively selected using magnetic CD4 microbeads (Miltenyi Biotec). For intracellular IL-17 quantitation by flow cytometry, 0.25 million cells/ well were plated in anti-CD3/CD28 (1 µg/ml) coated 48 well plates. A cocktail containing 10 ng/ml each of IL-6, IL-1 β, IL-21 and TGF-β (0.5 ng/ml) and IFNγ, IL-4, IL-12 neutralizing antibodies (10 μg/ml) was used for the Th17 polarizing conditions. All recombinant cytokines were purchased from R&D Systems and crosslinking antibodies were purified from hybridomas (Harlan). Cells were treated with small molecules at indicated concentrations at 18 h and 48 h of cell plating. On day 4 of the culture, cells were stimulated with 20 ng/ml of phorbol 12-myristate 13-acetate (PMA) and ionomycin (1 μg/ml) for 4 h in the presence of brefeldin A. Following stimulation, cells were stained with fixable viability dye (eBioscience) and surface stained for CD44 and CD4, permeabilized using cytofix/cytoperm (BD biosciences) and subsequently, stained for intracellular IL-17. Foxp3/Transcription Factor Staining kit (eBioscience) kit was used for intranuclear staining of RORγt. Samples were acquired on BD Fortessa and analyzed using Flowjo (Tree star Inc).

CD4+ T cells = assay: Viability dye and CD44 activation staining in the IL-17 flow cytometric assay; type: cell-based; conditions: Fig. S2a
Method: as §1, §2

[4] = Th17 cells from Mir155 reporter mice, β-gal signal

stability by LC–MS [1] | EC50 (Mir155 reporter; [4]) [µM] | Structure (SMILES) | EC50 (Mir155 reporter) [µM] | cytotoxicity / cell viability [2] | IL-17+ cells, gated on live CD4+CD44high cells ([3]; 20 µM) [%] | inhibition at 20 µM ([3]; CD4+ T) [%] | IL-17 / RORγt plot, percent cells, gated on live CD4+CD44high ([3]; Fig. S2b, DMSO 32.4% / 21.2%) [%] | inhibition at 20 µM ([3]; 20 µM, day 4, C57BL/6 CD4+ T cells) [%] | live cells (fixable viability dye, Live-dead) (CD4+ T cells; DMSO 77.4% / 80.6%) [%] | CD4+ CD44+ cells (CD4+ T cells; DMSO 97.2% / 98.2%) [%] | effect on IL-17 production ([3]; C57BL/6 CD4+ T cells, Th17 polarization)
stable and pure | 0.14 | O=C(Nc1ncc([N+](=O)[O-])s1)c1cccs1 [tenonitrozole, reference compound] |  | not because of toxicity of the compounds | 10.4 |  | 9.3 | 68 | 70.6 | 96.4 | 
stable and pure | 5.5 | c1ccc2[nH]c(-c3cscn3)nc2c1 [thiabendazole, reference compound] |  | not because of toxicity of the compounds | 31 |  |  |  |  |  | did not affect IL-17 production

Structure (SMILES) | stability by LC–MS [1] | EC50 (Mir155 reporter; [4]) [µM] | EC50 (Mir155 reporter) [µM] | cytotoxicity / cell viability [2] | IL-17+ cells, gated on live CD4+CD44high cells ([3]; 20 µM) [%] | inhibition at 20 µM ([3]; CD4+ T) [%] | IL-17 / RORγt plot, percent cells, gated on live CD4+CD44high ([3]; Fig. S2b, DMSO 32.4% / 21.2%) [%] | inhibition at 20 µM ([3]; 20 µM, day 4, C57BL/6 CD4+ T cells) [%] | live cells (fixable viability dye, Live-dead) (CD4+ T cells; DMSO 77.4% / 80.6%) [%] | CD4+ CD44+ cells (CD4+ T cells; DMSO 97.2% / 98.2%) [%] | effect on IL-17 production ([3]; C57BL/6 CD4+ T cells, Th17 polarization)
CCCSc1ccc2nc(NC(=O)OC)[nH]c2c1 [albendazole, reference compound] | stable and pure |  | 2.5 | not because of toxicity of the compounds | 14.2 | 55 |  |  |  |  | 
